Legend:
IDO1 expression in MSC = assay: RNA analysis of immunosuppressive factor IDO1 in exposed MSC; assay type: cell-based, human; details: 48 hours
Method: (§1) A single vial of human bone marrow-derived MSC was expanded and seeded using standard growth medium. At 95-99% confluency, cells were thoroughly washed with phosphate-buffered saline (PBS) and exposed to media containing treprostinil at doses ranging from 250 μg/mL to 0.004 μg/mL. After 48 hours of culture, cells were photographed and assessed for treatment-induced changes in morphology.
(§2) RNA from MSCs exposed to treprostinil of from 250 μg/mL to 0.004 μg/mL was re-analyzed for several other anti-inflammatory factors.

[1] = test system: human bone marrow-derived MSC; assay: MSC morphology after 48 hours exposure (cytotoxic effect); assay type: cell-based; details: 48 hours of culture
Method: as §1

TGFβ expression in MSC = assay: RNA analysis of immunosuppressive factor TGFβ in exposed MSC; assay type: cell-based, human; details: 48 hours
Method: as §1, §2

TNFα expression in MSC = assay: RNA analysis of pro-inflammatory cytokine TNFα in exposed MSC; assay type: cell-based, human; details: 48 hours
Method: as §1
(§3) Cells exposed to treprostinil ranging from 250 μg/mL-0.004 μg/mL as described in Example 1 were harvested. RNA of the cells was extracted and then analyzed for pro- and anti-inflammatory cytokines. Cytokines, or small proteins involved in both internal and secreted cell signaling, have been identified to play a role in the inflammatory pathogenesis of PAH (Groth et al., Respiratory Research, 15:47 (2014)).

iNOS expression in MSC = assay: RNA analysis of immunosuppressive factor iNOS in exposed MSC; assay type: cell-based, human; details: 48 hours
Method: as §1, §2

IL13 expression in MSC = assay: RNA analysis of anti-inflammatory cytokine IL13 in exposed MSC; assay type: cell-based, human; details: 48 hours
Method: as §1, §3

IL10 expression in MSC = assay: RNA analysis of anti-inflammatory cytokine IL10 in exposed MSC; assay type: cell-based, human; details: 48 hours
Method: as §1, §3

HLA expression in MSC = assay: RNA analysis of immunosuppressive factor HLA in exposed MSC; assay type: cell-based, human; details: 48 hours
Method: as §1, §2

CCCCC[C@H](O)CC[C@@H]1[C@H]2Cc3cccc(OCC(=O)O)c3C[C@H]2C[C@H]1O [treprostinil]
IDO over unexposed control (IDO1 expression in MSC; 9.3 μg/mL): increased | IDO1 over control (IDO1 expression in MSC; increasing doses): robust increase | MSC morphology (cytotoxic effect) ([1]; 83.3 μg/mL or lower): did not cause morphological changes associated with cell death | MSC morphology (cytotoxic effect) ([1]; 250 μg/mL): rounded up and detached | TGFβ over unexposed control (TGFβ expression in MSC; 9.3 μg/mL): increased | TGFβ over control (TGFβ expression in MSC; increasing doses): robust increase | lowering of TNFα expression compared to control (TNFα expression in MSC; 0.3 μg/mL to 83.3 μg/mL): up to 4.7 fold | TNFα over unexposed control (TNFα expression in MSC; 9.3 μg/mL): decreased | iNOS over unexposed control (iNOS expression in MSC; 9.3 μg/mL): increased | iNOS over control (iNOS expression in MSC; increasing doses): robust increase | IL13 over unexposed control (IL13 expression in MSC; 9.3 μg/mL): increased | increase of IL13 expression in MSC (IL13 expression in MSC; 27.8 μg/mL): 8.8 fold | IL13 signaling over control (IL13 expression in MSC; increasing doses): increase | increase of IL10 expression in MSC (IL10 expression in MSC; 9.3 μg/mL): 5.4 fold | IL10 signaling over control (IL10 expression in MSC; increasing doses): increase | HLA over unexposed control (HLA expression in MSC; 9.3 μg/mL): increased | HLA over control (HLA expression in MSC; increasing doses): robust increase

From patent US11571444B2, “Enhancement of MSC immunomodulatory properties by treprostinil” (United Therapeutics Corporation, priority 2016, dated 2023)
